The structures appear in SMILES notation. Where two headings read alike, the source gives them in different places.

This is an account of results in patent US20040219607A1, “Ligand screening and design by X-ray crystallography” (priority 1998, published 2004).

For one data set, the target named is μUK (Homo sapiens, UniProt P00749, C299A/N322Q). The settings on record: for binding at the urokinase active site seen in Fo-Fc electron density map: crystal soaked in mixture of 6 to 7 compounds, 3.3 to 5.2 mM each, compound 31 soaked individually.
In a further data set the target is T1, human urokinase (μUK) (Homo sapiens, UniProt P00749, C299A/N322Q).
T1 construct: μUK (UK amino acids Ile^159-Lys^404 that contain Ala^279Gln^302); made in house; host or cells: baculovirus-infected High-Five insect cells or Pichia pastoris GS115 (secreted)
In words: Urokinase inhibition constants by S-2444 chromogenic activity. In kind it is biochemical. The method, then:
Assays were completed at both pH 6.5 (0.1 M NaPO4) and 7.4 (50 mM Tris).

Data set [1] is described as follows: Oral bioavailability in the rat. The note with it: in vivo, 10 mg/kg dose.
The target of a further data set is VanX (Enterococcus faecium, UniProt Q06241). In words: CrystaLEAD crystallographic screening of VanX crystals. The note with it: crystals soaked in mixtures of 7-10 compounds.
In another data set the target is T2, ErmC′ (Bacillus subtilis, UniProt P13956).
T2 construct: made in house; host or cells: E. coli BL21(DE3)/pLysS with pTERM31 (pET24+ derivative)
As to the kind of experiment: CrystaLEAD crystallographic screening of ErmC′ crystals. The settings on record: adenosine library, mixtures of 8-9 compounds. In kind it is binding. An excerpt:
The adenosine library consisted of 59 compounds. The library was divided into 7 mixtures of 8-9 shape-diverse compounds and screened by the CrystaLEAD™ method. […] Equal volumes of each compound were mixed to assemble the mixture of […].
Typical usable data were 80-90% complete at 3.4-3.6 Å resolution with merging R-factors of 7-16%.

[2] abbreviates: pH 6.5 (0.1 M NaPO4), S-2444 substrate, read-out: Ki (pH 6.5).
Setting [3] is: pH 7.4 (50 mM Tris), S-2444 substrate, read-out: Ki (pH 7.4).

VanX, sequence (Q06241 whole entry): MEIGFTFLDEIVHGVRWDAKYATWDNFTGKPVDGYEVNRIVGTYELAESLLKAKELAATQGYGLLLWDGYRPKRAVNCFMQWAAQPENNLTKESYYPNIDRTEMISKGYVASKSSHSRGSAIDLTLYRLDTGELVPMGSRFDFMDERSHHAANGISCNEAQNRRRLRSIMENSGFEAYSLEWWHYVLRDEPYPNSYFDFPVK
T2 sequence (P13956 whole entry): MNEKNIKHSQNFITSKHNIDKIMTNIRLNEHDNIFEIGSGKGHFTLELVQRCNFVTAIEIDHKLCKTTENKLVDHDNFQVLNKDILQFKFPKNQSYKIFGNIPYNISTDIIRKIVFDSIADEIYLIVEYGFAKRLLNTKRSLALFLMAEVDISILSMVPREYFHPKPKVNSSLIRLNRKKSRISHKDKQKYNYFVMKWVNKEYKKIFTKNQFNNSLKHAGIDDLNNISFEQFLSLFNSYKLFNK

As for `Nc1ccc2c(c1)CC=N2` [Compound 22, 5-aminoindole], the “binding at the urokinase active site seen in Fo-Fc electron density map” value (from here on “binding … in Fo-Fc electron density map”) on μUK is reported as “found to bind”. Besides, the results for the Ki on human urokinase (μUK) (setting [2]) and at human urokinase (μUK) (setting [3]) were 200 µM and greater than 500 µM, respectively. The pKa (usually the negative logarithm of the acid dissociation constant) in the data set “pKa of CrystaLEAD hits” amounted to 6.

On to `Nc1ccc2cccc(Nc3ncccn3)c2n1` [Compound 35, 8-aminopyrimidinyl-2-aminoquinoline], for which the bioavailability (commonly dose-corrected exposure relative to a reference, in per cent) in data set [1] fell in the range of 30 to 40%.

As for `N[C@@H](CS)C(=O)O` [Compound 41], the “binding at the VanX active site seen in electron density map” value (shortened to “binding at the VanX active site seen”) at VanX is recorded as “binding”.

`O=C(O)C(=O)CS` [Compound 39]: the “binding at the VanX active site seen” value on VanX is reported as “bound”.

Consider `OCC1OC(n2cnc3c(NCc4ccccc4)ncnc32)C(O)C1O` (stereo not drawn) [Compound 44], for which the “binding to ErmC′ seen in electron density map” value on ErmC′ was “hits”.

For the compound `OCC1OC(n2cnc3c(NC4CCCCC4)ncnc32)C(O)C1O` (stereo not drawn) [Compound 45], on ErmC′, the “binding to ErmC′ seen in electron density map” value is “hits”.

On to `O=C(O)CCC1CCCC1` [Compound 37], for which the “binding at the VanX active site seen” value on VanX is given as “found to bind”.

Turning to `Cc1ccc(N)nc1` [Compound 31], on μUK, the “binding … in Fo-Fc electron density map” value is on record as “found to bind”. The Ki on human urokinase (μUK) (Ki (pH 6.5)) and on human urokinase (μUK) (Ki (pH 7.4)) was greater than 500 µM each time. The pKa in “pKa of CrystaLEAD hits” came to 7.

As for `O=C(O)C1CCCC1` [Compound 36], the “binding at the VanX active site seen” value on VanX was “bound”.

Consider `Cc1nc(N)ccc1Br` [Compound 5], for which the “binding … in Fo-Fc electron density map” value on μUK is “binder”. Besides, the inhibitory constant (Ki) on human urokinase (μUK) (setting [2]) and at human urokinase (μUK) (setting [3]) was greater than 500 µM in each case. In the data set “pKa of CrystaLEAD hits”, this compound yielded a pKa of 6.

As to `Nc1ccc2cccc(O)c2n1` [Compound 19, 2-amino-8-hydroxyquinoline], the “binding … in Fo-Fc electron density map” value at μUK was “bound”. Also, the “binding at the urokinase active site seen in electron density map, 100 compound mixture” value on μUK (mixture of 100 compounds spiked with compound 19 at 180 μM, 1% DMSO, 4 hours 15 minutes soak) is listed as “positive hit”. Besides, the inhibition constant Ki (commonly the dissociation constant of the complex between target and ligand, obtained from inhibition or displacement) on human urokinase (μUK) (Ki (pH 7.4), pH 7.4 (50 mM Tris), S-2444 substrate) amounted to 137 µM; at human urokinase (μUK) (Ki at pH 6.5, pH 6.5, restated in Example 3), 56 µM. Besides, the pKa in the data set “pKa of CrystaLEAD hits” came out at 7.3.
